Experimental data as given in paper PMC6684685, “Evaluation of polydentate picolinic acid chelating ligands and an α-melanocyte-stimulating hormone derivative for targeted alpha therapy using ISOL-produced ^225Ac” (EJNMMI Radiopharmacy and Chemistry, 2019).
Where two headings read alike, the source gives them in different places.

What was measured:
[1] = Stability of 225Ac complexes in human serum (competition, TLC); assay type: in vitro ADME; settings: ambient temperature
Protocol: (§1) Varying TLC/iTLC plate systems were selected for different ligands based from results of positive and negative radiolabeling controls: • Method A, for [^225Ac(octapa)]^− and [^225Ac(CHXoctapa)]^−: iTLC-SG plates (Agilent, 2 cm × 10 cm, baseline at 1.5 cm), developed using 10 mM NaOH/9% NaCl solution. Under these conditions free ^225Ac^III remains at the baseline (Rf = 0), while the ^225Ac-ligand complex migrates upwards with the solvent (Rf > 0); or • Method B, for [^225Ac(bispa^2)]^+ and [^225Ac(macropa)]^+: aluminum-backed ultrapure silica gel 60 with 250 μm thickness TLC plates (Fisher, 2 cm × 10 cm, baseline at 1.5 cm), developed using 0.4 M sodium citrate (pH 4) with 10% methanol. Under these conditions free ^225Ac^III migrates with the solvent front (Rf = 1), while ^225Ac-ligand complex remains at the baseline (Rf = 0); (Comba et al. [2017]; Thiele et al. [2017]) or • Method C, for [^225Ac(DOTA)]^−: iTLC-SA plates (Agilent, 2 × 10 cm, baseline at 1.5 cm) and developed using 50 mM EDTA buffer, pH 4. Under these conditions free ^225Ac^III migrates with the solvent front (Rf = 1), while ^225Ac-ligand complex remains at the baseline (Rf = 0); or • Method D, for human serum stability (below): aluminum-backed ultrapure silica gel 60 with 250 um thickness TLC plates (Fisher, 2 cm × 10 cm, baseline at 1.5 cm), developed in 50 mM EDTA, pH 5. Under these conditions, chelate-bound ^225Ac remains at the baseline (Rf = 0), and any ^225Ac^III that has de-complexed from the chelate will travel with the solvent front (Rf = 1). Method D was validated by incubating “free” ^225Ac^III with human serum under analogous conditions to ensure all the activity eluted with the solvent front (Rf ~ 1).
To investigate the stabilities of the ^225Ac-complexes, a competition experiment was performed in the presence of excess human serum and the displacement of radioactivity from the chelator to serum proteins was tracked over the course of seven days. Endogenous metal-binding proteins in serum such as apo-transferrin and metallothionein can compete for and displace chelator-bound metal ions in vivo, preventing successful delivery of the radionuclide to the desired target. The ^225Ac-complexes were prepared using the radiolabeling protocols described above and added to an equal volume (170–180 μL) of human serum (stored at − 5 °C and thawed at ambient temperature). At varying time points (0.5 h to 7 days), small aliquots (1–5 μL) were spotted on iTLC plates using Methods B or D, described above. Representative TLC radio-chromatograms of a serum competition assay with ligand and control are presented in Additional file 1: Figures S2 and S3.

[2] = La(III) exchange competition assay, 50-fold excess La; assay type: physicochemical; settings: 50-fold excess La^III, ambient temperature
Protocol: as §1
The stability of a radiometal-chelate complex is also often assessed by its ability to withstand transchelation in the presence of excess stable isotopes of the radiometal. Though this is an impossible experiment to perform with Ac since all Ac isotopes are unstable, lanthanum(III) has a similar ionic radius ([…], CN = 6–9) and charge to actinium(III) and is often considered a chemical surrogate to Ac^III. Using non-radioactive metal ions such as La^III as a competitor for ligand complexation is a straightforward method to probe the kinetic off-rate of a pre-formed Ac^III complex, since many ligands that bind Ac^III may also efficiently complex La^III. Herein, ^225Ac-complexes were prepared using the radiolabeling protocols described above and combined with La(NO3)3 (0.1 M, 50 M equivalents compared to the ligand) and allowed to react at ambient temperature. At varying time points (1 h – 7 d), aliquots of the competition reaction mixture (1–5 μL) were spotted on aluminum backed TLC plates and developed using the TLC methods described above.

[3] = human serum, n = 1, ref Thiele et al. [2017], cited from earlier work
[4] = 50-fold excess La^III, ref Thiele et al. [2017], cited from earlier work

Structure (SMILES) | % Stable ([1]; 1 h) [%] | % Stable ([1]; 4 h) [%] | % Stable ([1]; 1 d) [%] | % Stable ([1]; 2 d) [%] | % Stable ([1]; 3 d) [%] | % Stable ([1]; 4 d) [%] | % Stable ([1]; 7 d) [%] | % Stable ([2]; 1 h) [%] | % Stable ([2]; 5 h) [%] | % Stable ([2]; 1 d) [%] | % Stable ([2]; 2 d) [%] | % Stable ([2]; 7 d) [%] | also measured
O=C([O-])CN(CCN(CC(=O)[O-])Cc1cccc(C(=O)[O-])n1)Cc1cccc(C(=O)[O-])n1.[225Ac+3] [[^225Ac(octapa)]^−] | 97.9 ± 0.9 | 96.9 ± 1.5 | 94.9 ± 1.2 | 96.1 ± 1.0 | 94.9 ± 1.1 | 95.9 ± 1.9 | 92.9 ± 1.0 | 78.9 ± 2.9 | 42.7 ± 0.3 | 4.7 ± 1.5 | 6.1 ± 2.6 |  | 
O=C([O-])c1cccc(CN2CCOCCOCCN(Cc3cccc(C(=O)[O-])n3)CCOCCOCC2)n1.[225Ac+3] [[^225Ac(macropa)]^+] |  |  |  |  |  |  |  |  |  |  |  |  | % Stable ([3]; 0.5 h): 96%; % Stable ([3]; 1 h): 95%; % Stable ([3]; 4 h): 93%; % Stable ([3]; 1 d): 90%; % Stable ([3]; 2 d): 93%; % Stable ([3]; 3 d): 90%; % Stable ([3]; 7 d): 90%; % Stable ([4]; 1 h): 95%; % Stable ([4]; 1 d): 93%; % Stable ([4]; 2 d): 92%; % Stable ([4]; 3 d): 91%; % Stable ([4]; 6 d): 93%; % Stable ([4]; 7 d column (footnote: 8 d time point)): 91^b %; % Stable ([4]; 7 d column (footnote: 8 d time point), listed as [^225Ac(macropa)]^−): 91%
O=C([O-])CN1CCN(CC(=O)[O-])CCN(CC(=O)[O-])CCN(CC(=O)[O-])CC1.[225Ac+3] [[^225Ac(DOTA)]^−, reference compound] | 93.9 ± 4.5 | 94.4 ± 3.7 | 90.9 ± 5.6 | 91.8 ± 5.6 |  | 91.1 ± 6.1 | 84.7 ± 8.1 | 95.2 ± 3.3 | 94.5 ± 3.5 | 94.9 ± 2.9 | 86.2 ± 3.1 | 77.1 ± 3.6 | % Stable ([1]; 0.5 h): 92.4 ± 4.0%
O=C([O-])CN(Cc1cccc(C(=O)[O-])n1)C1CCCCC1N(CC(=O)[O-])Cc1cccc(C(=O)[O-])n1.[225Ac+3] (centres unmarked) [[^225Ac(CHXoctapa)]^−] | 95.9 ± 1.0 | 96.8 ± 1.7 | 97.0 ± 0.9 | 96.7 ± 1.6 | 96.1 ± 1.5 | 96.7 ± 1.2 | 95.6 ± 1.6 |  | 81.8 ± 4.3 | 45.7 ± 3.1 | 26.5 ± 8.9 | 3.9 ± 0.6 | % Stable ([2]; 3 d): 18.1 ± 0.4%; % Stable ([2]; 6 d): 5.0 ± 0.4%
O=C([O-])c1cccc(CN(CCN(Cc2cccc(C(=O)[O-])n2)CP(=O)([O-])[O-])CP(=O)([O-])[O-])n1.[225Ac+3] [[^225Ac(phospa)]^3−] | 81.6 ± 1.1 |  | 81.5 ± 0.2 |  | 80.2 ± 1.1 | 76.2 ± 0.1 | 77.1 ± 6.4 |  | 0 |  |  |  | 
